Test results: patent publication US9242988B2, “2′-cyano substituted nucleoside derivatives and methods of use thereof for the treatment of viral diseases” (Merck Sharp & Dohme Corp., priority 2012, dated 2016)
Where two headings read alike, the source gives them in different places.

Test system: HCV replicon cells (1b)
Test: Cell-Based HCV Replicon Assay
Method: To measure cell-based anti-HCV activity of selected compounds of the present invention, replicon cells were seeded at 5000 cells/well in 96-well collagen I-coated Nunc plates in the presence of the test compound. Various concentrations of test compound, typically in 10 serial 2-fold dilutions, were added to the assay mixture, with the starting concentration ranging from 250 μM to 1 μM. The final concentration of dimethylsulfoxide was 0.5%, fetal bovine serum was 5%, in the assay media. Cells were harvested on day 3 by the addition of 1× cell lysis buffer (Ambion cat #8721). The replicon RNA level was measured using real time PCR (Taqman assay). The amplicon was located in 5B. The PCR primers were: 5B.2F, […] (SEQ ID. NO. 1); 5B.2R, […] (SEQ ID. NO. 2); the probe sequence was FAM-labeled […] (SEQ ID. NO. 3). GAPDH RNA was used as endogenous control and was amplified in the same reaction as NS5B (multiplex PCR) using primers and VIC-labeled probe recommended by the manufacturer (PE Applied Biosystem). The real-time RT-PCR reactions were run on ABI PRISM 7900HT Sequence Detection System using the following program: 48° C. for 30 minutes, 95° C. for 10 minutes, 40 cycles of 95° C. for 15 sec, 60° C. for 1 minute. The ΔCT values (CT5B-CTGAPDH) were plotted against the concentration of test compound and fitted to the sigmoid dose-response model using XLfit4 (MDL). […] Alternatively, to quantitate the absolute amount of replicon RNA, a standard curve was established by including serially diluted T7 transcripts of replicon RNA in the Taqman assay. All Taqman reagents were from PE Applied Biosystems. Such an assay procedure was described in detail in e.g. Malcolm et al., Antimicrobial Agents and Chemotherapy 50: 1013-1020 (2006).

[1] = Hepatitis C virus, 72 h, replicon RNA level by real time PCR (Taqman), cells harvested on day 3; read-out: 1b EC50
[2] = Hepatitis C virus, 72 h, read-out: 1b EC50
[3] = replicon RNA level by real time PCR (Taqman), cells harvested on day 3; read-out: 1b EC50

CC(C)(C)COP1(=O)OC[C@H]2O[C@@H](c3ccc4c(N)ncnn34)[C@](C)(C#N)[C@@H]2O1 (single isomer, unassigned) [Compound 18] showed an EC50 [1] of 33 µM.

Compound CC(C)OC(=O)[C@H](C)NP(=O)(OC[C@H]1O[C@@H](c2ccc3c(N)ncnn23)[C@](C)(C#N)[C@@H]1O)Oc1ccccc1 (single isomer, unassigned) [Compound 11] has an EC50 [2] of 35 µM.

CC(C)OC(=O)[C@H](C)NP(=O)(OC[C@H]1O[C@@H](c2cnc3c(N)ncnn23)[C@](C)(C#N)[C@@H]1O)Oc1ccccc1 (single isomer, unassigned) [Compound 14] was tested, and the EC50 [2] was greater than 100 µM.

CC(C)(C)COP1(=O)OC[C@H]2O[C@@H](c3ccc4c(N)ncnn34)[C@](C)(C#N)[C@@H]2O1 (single isomer, unassigned) [Compound 19] gave an EC50 [3] of 46 µM.

Compound CC(C)OC(=O)COP(=O)(N[C@@H](C)C(=O)OC(C)C)OC[C@H]1O[C@@H](c2ccc3c(N)ncnn23)[C@](C)(C#N)[C@@H]1O (single isomer, unassigned) [Compound 12] has an EC50 [1] greater than 100 µM.

CC(C)OP1(=O)OC[C@H]2O[C@@H](c3cnc4c(N)ncnn34)[C@](C)(C#N)[C@@H]2O1 (single isomer, unassigned) [Compound 20] showed an EC50 [1] of 77 µM.

For CC(C)OC(=O)[C@H](C)NP(=O)(OC[C@H]1O[C@@H](c2cnc3c(N)ncnn23)[C@](C)(C#N)[C@@H]1O)Oc1ccccc1 (single isomer, unassigned) [Compound 15], the EC50 (read-out: 1b EC50; replicon RNA level by real time PCR (Taqman), cells harvested on day 3) was greater than 100 µM.

CC(C)OP1(=O)OC[C@H]2O[C@@H](c3cnc4c(N)ncnn34)[C@](C)(C#N)[C@@H]2O1 (single isomer, unassigned) [Compound 21] was tested, and the EC50 [3] was greater than 100 µM.
